Laboratory results from patent US11530244B2, “Cyclic polypeptides for PCSK9 inhibition” (priority 2018, dated 2022).
Starred links: 1 amine or outer side, 2 acyl side, 3 side chain; linkers in the order of their positions; H or OH if unused. Positions of bridges follow the written chain, without caps; N, C: chain ends. Non-standard residues stand in square brackets, D forms with d. Residues, ends and D or L forms follow the SMILES beside them. ξ: configuration not given here. Trp(5-F) = N[C@@H](Cc1c[nH]c2ccc(F)cc12)C(=O)O; Trp(7-aza) = N[C@@H](Cc1c[nH]c2ncccc12)C(=O)O; X9 = CS[C@H]1C[C@@H](C(=O)[*:2])N([*:1])C1; X13 = O=C(CCCCc1cccc(CCCCN[*:1])c1)[*:2]; X4 = O=C(CCSCc1cccc(CSCCN[*:1])c1)[*:2]; mXylylene = c1cc(C[*:1])cc(C[*:2])c1; AEF = NCCOc1ccc(C[C@H](N)C(=O)O)cc1; NMeY = CN[C@@H](Cc1ccc(O)cc1)C(=O)O; X41 = O=C(Cc1ccc(N[*:1])cc1)[*:2]; NMeL = CN[C@@H](CC(C)C)C(=O)O; αMeP = C[C@@]1(C(=O)O)CCCN1; Orn = NCCC[C@H](N)C(=O)O; dDap = NC[C@@H](N)C(=O)O; ξD = NC(CC(=O)O)C(=O)O; X2 = O=C(C[*:2])[*:1]; Mpa = O=C(O)CCS

How the values were obtained:
[1] = molecular target: PCSK9 (Homo sapiens (Human), UniProt Q8NBP7); assay: PCSK9 Alexa FRET Standard assay (displacement of AlexaFluor647 tagged cyclic peptide Reagent A); assay type: binding; conditions: PCSK9 Alexa FRET Standard assay, 0.5 nM PCSK9, 20 nM AF cyclic peptide Reagent A; read-out: IC50
Sequence of PCSK9 (Q8NBP7 153-692): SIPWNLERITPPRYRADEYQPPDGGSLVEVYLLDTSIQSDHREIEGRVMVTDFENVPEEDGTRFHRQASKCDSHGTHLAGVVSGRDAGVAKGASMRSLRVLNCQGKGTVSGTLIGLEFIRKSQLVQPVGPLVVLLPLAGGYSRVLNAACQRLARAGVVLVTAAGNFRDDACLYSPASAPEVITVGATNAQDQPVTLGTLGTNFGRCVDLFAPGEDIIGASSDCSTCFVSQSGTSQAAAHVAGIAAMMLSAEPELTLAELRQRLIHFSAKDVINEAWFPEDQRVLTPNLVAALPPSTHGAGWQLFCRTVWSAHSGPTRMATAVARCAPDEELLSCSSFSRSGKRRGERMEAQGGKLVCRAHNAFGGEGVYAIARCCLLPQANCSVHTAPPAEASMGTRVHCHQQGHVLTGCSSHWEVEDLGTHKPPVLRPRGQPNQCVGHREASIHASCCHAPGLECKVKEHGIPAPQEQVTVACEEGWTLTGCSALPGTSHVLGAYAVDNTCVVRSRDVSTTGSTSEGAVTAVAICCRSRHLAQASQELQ
Outline: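 TR-FRET displacement: 0.5 nM biotinylated PCSK9 with 1.25 nM Strep-Eu and 20 nM AlexaFluor-tagged cyclic peptide (final) in 50 mM HEPES pH 7.4, 0.15 M NaCl, 5 mM CaCl2, 0.01% BSA, 0.01% P20, ≥2 h at room temperature. IC50 from sigmoidal fit, converted to Ki via peptide KD; falling Eu counts flagged false positives.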

[2] = molecular target: human PCSK9 / human LDLR EGFa domain interaction (Homo sapiens (Human), UniProt Q8NBP7); assay: TR-FRET assay of inhibition of the PCSK9-LDLR protein-protein interaction; assay type: binding; conditions: TR-FRET, 20 nM human PCSK9, 20 nM human LDLR EGFa domain, 2 hours room temperature; read-out: IC50
Sequence of human PCSK9 / human LDLR EGFa domain interaction (Q8NBP7 153-692): as above
Sequence of human PCSK9 / human LDLR EGFa domain interaction (Q8NBP7 31-152 partner): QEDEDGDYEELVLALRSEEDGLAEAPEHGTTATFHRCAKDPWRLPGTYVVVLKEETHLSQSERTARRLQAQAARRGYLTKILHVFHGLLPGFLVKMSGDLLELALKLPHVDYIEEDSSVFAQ
Outline: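 Avitag-biotinylated human PCSK9 (20 nM) and his-tagged human LDLR EGFa domain (20 nM) were incubated with 5 nM Ulight streptavidin and 5 nM europium anti-6×His for 2 h at room temperature. Buffer: 50 mM HEPES, 150 mM NaCl, 5 mM CaCl2, 0.01% BSA, 0.01% P20. IC50 from 4-parameter fit of dose-response.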

Row | SMILES | IC50 [1] | IC50 [2]
1 | COc1ccc(C[C@@H]2NC(=O)CCSCc3cccc(c3)CSC[C@@H](C(N)=O)NC(=O)[C@]3(C)CCCN3C(=O)[C@H](Cc3ccc(OC)cc3)NC(=O)[C@H]([C@@H](C)OC)NC(=O)[C@H](CC(C)C)N(C)C(=O)[C@H](Cc3ccc(OC)cc3)NC(=O)[C@H](Cc3ccc(OC)cc3)N(C)C(=O)[C@@H](CC(C)C)NC2=O)cc1 [Compound 036] ([Mpa]Y(Me)[dL][NMeY](Me)Y(Me)[NMeL]T(Me)Y(Me)[αMeP]C-NH2; linker 1-10 via mXylylene) | 0.11 to 100 nM | 0.1 to 100 nM
2 | CC(=O)N[C@H]1CCCNC(=O)COc2ccc(cc2)C[C@@H](C(N)=O)NC(=O)[C@]2(C)CCCN2C(=O)[C@H](Cc2ccc(O)cc2)NC(=O)[C@H](Cc2cnc[nH]2)NC(=O)[C@H](CC(=O)O)NC(=O)[C@H](Cc2c[nH]c3ccc(F)cc23)NC(=O)[C@H](Cc2c[nH]c3ccc(F)cc23)NC(=O)CNC(=O)[C@H](C)NC1=O [Compound 364] (Ac-[Orn]AG[Trp(5-F)][Trp(5-F)]DHY[αMeP]Y-NH2; linker 1-10 via X2) | 100 to 1000 nM | 100 to 1000 nM
3 | CC(=O)N[C@H]1CCC(=O)NCCOc2ccc(cc2)C[C@@H](C(N)=O)NC(=O)[C@]2(C)CCCN2C(=O)[C@H](Cc2ccc(O)cc2)NC(=O)[C@H](Cc2c[nH]cn2)NC(=O)[C@H](CC(=O)O)NC(=O)[C@H](Cc2c[nH]c3ccc(F)cc23)NC(=O)[C@H](Cc2c[nH]c3ccc(F)cc23)NC(=O)CNC(=O)[C@H](C)NC1=O [Compound 311] (Ac-EAG[Trp(5-F)][Trp(5-F)]DHY[αMeP][AEF]-NH2; lactam 1-10) | 1000 to 12100 nM | 100 to 1000 nM
4 | C[C@@]12CCCN1C(=O)[C@H](Cc1c[nH]c3ncccc13)NC(=O)[C@H](Cc1cnc[nH]1)NC(=O)[C@H](CC(=O)O)NC(=O)[C@H](Cc1c[nH]c3ccc(F)cc13)NC(=O)[C@H](Cc1c[nH]c3ccc(F)cc13)NC(=O)CNC(=O)[C@H](CCCCN)NC(=O)CCSCc1cccc(c1)CSC[C@@H](C(N)=O)NC2=O [Compound 360] ([Mpa]KG[Trp(5-F)][Trp(5-F)]DH[Trp(7-aza)][αMeP]C-NH2; linker 1-10 via mXylylene) | 100 to 1000 nM | 0.1 to 100 nM
5 | C[C@@]12CCCN1C(=O)[C@H](Cc1ccc(O)cc1)NC(=O)[C@H](Cc1cnc[nH]1)NC(=O)[C@H](CC(=O)O)NC(=O)[C@H](Cc1c[nH]c3ccc(F)cc13)NC(=O)[C@H](Cc1c[nH]c3ccc(F)cc13)NC(=O)CNC(=O)[C@@H](CN)NC(=O)CCSCc1cccc(c1)CSC[C@@H](C(N)=O)NC2=O [Compound 354] ([Mpa][dDap]G[Trp(5-F)][Trp(5-F)]DHY[αMeP]C-NH2; linker 1-10 via mXylylene) | 21000 to 50000 nM | 21000 to 50000 nM
6 | COc1ccc(C[C@@H]2NC(=O)[C@H](Cc3cnc[nH]3)NC(=O)[C@H](CC(=O)O)NC(=O)[C@H](Cc3c[nH]c4ccc(F)cc34)NC(=O)[C@H](Cc3c[nH]c4ccc(F)cc34)NC(=O)[C@@H](C)NC(=O)Cc3ccc(cc3)NC(=O)CC(C(=O)O)NC(=O)[C@]3(C)CCCN3C2=O)cc1 (stereo partly drawn) [Compound 402] ([X41][dA][Trp(5-F)][Trp(5-F)]DHY(Me)[αMeP][ξD]-OH; lactam N-9) | 1000 to 12100 nM | 1000 to 12100 nM
7 | COc1ccc(C[C@@H]2NC(=O)[C@H]([C@@H](C)O)NC(=O)[C@@H]3CSCc4cccc(c4)CSC[C@H](NC(=O)[C@@H](C)NC(=O)[C@H](C)NC(=O)CCCCc4cccc(c4)CCCCNC(=O)[C@@H]4CCCN4C2=O)C(=O)N[C@@H](Cc2c[nH]c4ccc(F)cc24)C(=O)N3)cc1 [Compound 497] (cyclo(A[dA]C[Trp(5-F)]CTY(Me)P[X13]); linker 3-5 via mXylylene) | 100 to 1000 nM | 100 to 1000 nM
8 | CS[C@H]1C[C@H]2C(=O)N[C@H](C(N)=O)CSCc3cccc(c3)CSCCC(=O)N[C@@H](CCCCN)C(=O)NCC(=O)N[C@@H](Cc3c[nH]c4ccc(F)cc34)C(=O)N[C@@H](Cc3c[nH]c4ccc(F)cc34)C(=O)N[C@@H](CC(=O)O)C(=O)N[C@@H](Cc3cnc[nH]3)C(=O)N[C@@H](Cc3ccc(O)cc3)C(=O)N2C1 [Compound 363] ([Mpa]KG[Trp(5-F)][Trp(5-F)]DHY[X9]C-NH2; linker 1-10 via mXylylene) | 100 to 1000 nM | 0.1 to 100 nM
9 | COc1ccc(C[C@@H]2NC(=O)[C@H]([C@@H](C)O)NC(=O)[C@]3(C)CCCN3C(=O)[C@H](Cc3c[nH]c4ccc(F)cc34)NC(=O)[C@H](Cc3c[nH]c4ccc(F)cc34)NC(=O)[C@@H](C)NC(=O)[C@H](CCCCN)NC(=O)CCSCc3cccc(c3)CSCCNC(=O)[C@]3(C)CCCN3C2=O)cc1 [Compound 025] (cyclo(K[dA][Trp(5-F)][Trp(5-F)][αMeP]TY(Me)[αMeP][X4])) | 100 to 1000 nM | 100 to 1000 nM
